Results on two compounds are retold here after ChEMBL document CHEMBL1275268, “Computational analysis of ligand recognition sites of homo- and heteropentameric 5-HT3 receptors” (Eur J Med Chem, 2010).

Series [1] in a line: Chemical stability of the compound assessed as half life. The series is classed as physicochemical.
Series [2] deals with T1, 5-hydroxytryptamine receptor 3A (Homo sapiens, UniProt P46098).
T1 sequence (P46098 whole entry): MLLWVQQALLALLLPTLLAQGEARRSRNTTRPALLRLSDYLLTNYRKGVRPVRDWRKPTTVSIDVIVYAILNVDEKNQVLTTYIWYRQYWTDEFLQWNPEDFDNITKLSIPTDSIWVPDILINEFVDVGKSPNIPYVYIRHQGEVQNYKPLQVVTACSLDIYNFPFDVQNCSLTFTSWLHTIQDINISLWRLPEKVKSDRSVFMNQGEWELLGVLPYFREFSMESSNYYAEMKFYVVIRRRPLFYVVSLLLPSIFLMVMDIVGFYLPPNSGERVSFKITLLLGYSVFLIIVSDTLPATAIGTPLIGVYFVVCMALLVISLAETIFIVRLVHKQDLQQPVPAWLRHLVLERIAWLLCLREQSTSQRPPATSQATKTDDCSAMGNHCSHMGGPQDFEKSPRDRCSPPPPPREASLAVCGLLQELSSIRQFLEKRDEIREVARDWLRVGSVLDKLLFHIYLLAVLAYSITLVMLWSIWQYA
In words: Binding affinity to 5HT3A receptor.

In general, half-life refers to how long it takes for the measured level to halve. As for `CN1C2CCCC1CC(NC(=O)c1nn(C)c3ccccc13)C2` (stereo not drawn) [GRANISETRON], in series [1], the half-life is 5 h.
Broadly, the Ki is the equilibrium dissociation constant of an inhibitor or competing ligand from its target. The low end stands for a stronger hold on the target, the high end for a looser hold on the target. For `O=C1c2cccc3c2[C@H](CCC3)CN1[C@@H]1CN2CCC1CC2` [PALONOSETRON], the Ki in series [2] was 31.6 pM. Besides, the half-life in series [1] was 38 h.
